Experimental data published in patent publication US12257264B2, “Combination therapy for HIV with adenosine derivative and capsid inhibitors” (Brii Biosciences, Inc., priority 2021, dated 2025).
Values joined by “and” are separate entries in the source; they are usually repeats but may differ in a detail not shown here. Equal entries are not always repeated.

Assays:
[1] = Liver S9 stability and conversion to EFdA; assay type: in vitro ADME, human; settings: for half-life at 1 µM: human liver S9, 37° C.
Description: Intermediate solution: Dilute 5 μL of compounds or controls (7-ethoxycoumarin) from stock solution (10 mM) with 495 μL MeOH (Conc.: 100 μM, 1% DMSO, 99% MeOH). Stop solution: Cold ACN (including 100 ng/mL Tolbutamide and Labetalol as internal standard). Add 2 μL test compound or control working solution/well to all plates (T0, T5, T10, T20, T30, T60, NCF60) except matrix blank. Add 600 μL/well stop solution (cold in 4° C., including 100 ng/mL Tolbutamide/100 ng/mL Labetalol) to terminate the TO plate, then put it on ice. Dispense 840 μL/well S9 solution to 96-well plate as reservoir according to plate map. Then add 100 μL/well to every plate by Apricot. Incubate S9 solution and compound at 37° C. for about 10 min except NCF60 and TO. After adding S9 solution and 98 μLPB buffer to NCF60, incubate at 37° C. without pre-warming, start timer 1. After 60 min, add 600 μL/well stop solution to terminate the reaction. After pre-warming, dispense 760 μL/well cofactor solution to 96-well plate as reservoir according to plate map. Then add 98 μL/well to every plate by Apricot to start reaction. Incubate at 37° C., start timer 2, Add 600 μL/well stop solution (cold in 4° C., including 100 ng/mL Tolbutamide and Labetalol) to terminate the reaction. Samples are centrifuged at 4000 rpm for 20 min. While centrifuging, load 8×new 96-well plate with 300 μL HPLC water, then transfer 100 μL supernatant, mix with water for LC/MS/MS, transferred to Bioanalytical Services for LC-MS/MS analysis. Use equation of first order kinetics to calculate t1/2 and CL: Equation of first order kinetics: […]

[2] = Plasma stability and conversion to EFdA; settings: for half-life at 2 µM: human, plasma, pH 7.4
Description: The pooled frozen plasma was thawed in a water bath at 37° C. prior to experiment. Plasma was centrifuged at 4000 rpm for 5 min and the clots were removed if any. The pH will be adjusted to 7.4±0.1 if required.
Preparation of test compounds and positive control (propantheline bromide): 1 mM intermediate solution was prepared by diluting 10 μL of the stock solution with 90 μL MeOH; 1 mM intermediate of positive control Propantheline was prepared by diluting 10 μL of the stock solution with 90 μL ultrapure water. 100 μM dosing solution was prepared by diluting 20 μL of the intermediate solution (1 mM) with 180 μL MeOH. 98 μL of blank plasma was spiked with 2 μL of dosing solution (100 μM) to achieve 2 μM of the final concentration in duplicate and samples were incubated at 37° C. in a water bath. At each time point (0, 10, 30, 60 and 120 min), […] of stop solution (0.1% FA in MeOH containing 200 ng/mL tolbutamide and 200 ng/mL Labetalol) was added to precipitate protein and mixed thoroughly. Centrifuged sample plates at 4,000 rpm for 10 min. An aliquot of supernatant (100 μL) was transferred from each well to another plates.
Data analysis: The % remaining of test compound after incubation in plasma was calculated using following equation: % Remaining=100×(PAR at appointed incubation time/PAR at T0 time) where PAR is the peak area ratio of analyte versus internal standard (IS) (LC/MS/MS mobile phase condition: 0.1% Formic Acid in Water/0.1% Formic Acid in Acetonitrile. The appointed incubation time points are TO (0 min), Tn (n=0, 10, 30, 60, 120 min). Liver S9 Stability

[3] = Plasma exposures following oral administration to beagle dogs; settings: EFdA PO 5 mg/kg

Row | SMILES | Stability in Human Liver S9 Formation of EFdA [1] | half-life at 1 µM [1] [min] | Stability in Human Plasma Formation of EFdA [2] | half-life at 2 µM [2] [min] | further results
1 | C#C[C@]1(COC(=O)NCCN(C)Cc2oc(=O)oc2C)O[C@@H](n2cnc3c(N)nc(F)nc32)C[C@@H]1O [Formula 7-A, ((2R,3S,5R)-5-(6-amino-2-fluoro-9H-purin-9-yl)-2-ethynyl-3-hydroxytetrahydrofuran-2-yl)methyl (2-(methyl((5-methyl-2-oxo-1,3-dioxol-4-yl)methyl)amino)ethyl)carbamate] | No | < 50 | No | 50 to 200 | 
2 | C#C[C@]1(COC(=O)OCc2oc(=O)oc2C)O[C@@H](n2cnc3c(N)nc(F)nc32)C[C@@H]1OC(=O)OCc1oc(=O)oc1C [Formula 4-C, ((2R,3S,5R)-5-(6-amino-2-fluoro-9H-purin-9-yl)-2-ethynyl-3-((((5-methyl-2-oxo-1,3-dioxol-4-yl)methoxy)carbonyl)oxy)tetrahydrofuran-2-yl)methyl ((5-methyl-2-oxo-1,3-dioxol-4-yl)methyl) carbonate] | Yes | < 50 | Yes | < 50 | Conversion to the target drug (EFdA) in liver S9 assay [1]: converted to the target drug efficiently; Conversion to the target drug (EFdA) in human plasma assay [2]: converted to the target drug efficiently
3 | C#C[C@]1(COC(=O)NC)O[C@@H](n2cnc3c(N)nc(F)nc32)C[C@@H]1O [Formula 5-A, ((2R,3S,5R)-5-(6-amino-2-fluoro-9H-purin-9-yl)-2-ethynyl-3-hydroxytetrahydrofuran-2-yl)methyl methylcarbamate] | No | 50 to 200 | No | > 200 | 
4 | C#C[C@]1(CO)O[C@@H](n2cnc3c(NCc4oc(=O)oc4C)nc(F)nc32)C[C@@H]1O [Formula 6-A, 4-(((9-((2R,4S,5R)-5-ethynyl-4-hydroxy-5-(hydroxymethyl)tetrahydrofuran-2-yl)-2-fluoro-9H-purin-6-yl)amino)methyl)-5-methyl-1,3-dioxol-2-one] | Yes | < 50 | No | < 50 | Conversion to the target drug (EFdA) in liver S9 assay [1]: converted to the target drug efficiently
5 | C#C[C@]1(CO)O[C@@H](n2cnc3c(N)nc(F)nc32)C[C@@H]1O [Formula T-1A, (2R,3S,5R)-5-(6-amino-2-fluoro-9H-purin-9-yl)-2-ethynyl-2-(hydroxymethyl)tetrahydrofuran-3-ol, reference compound] |  |  |  |  | EFdA Concentrations in Dog Plasma ([3]; 0.250 hrs, individual animals, 5 mg/kg): 333 ng/mL and 276 ng/mL; EFdA Concentrations in Dog Plasma ([3]; 0.500 hrs, individual animals, 5 mg/kg): 299 ng/mL and 280 ng/mL; EFdA Concentrations in Dog Plasma ([3]; 1.00 hrs, individual animals, 5 mg/kg): 353 ng/mL and 361 ng/mL; EFdA Concentrations in Dog Plasma ([3]; 2.00 hrs, individual animals, 5 mg/kg): 212 ng/mL and 143 ng/mL; EFdA Concentrations in Dog Plasma ([3]; 4.00 hrs, individual animals, 5 mg/kg): 12.6 ng/mL and 17.9 ng/mL and 6.30 ng/mL; EFdA Concentrations in Dog Plasma ([3]; 6.00 hrs, individual animals): BQL; EFdA Concentrations in Dog Plasma ([3]; 8.00 hrs, individual animals): BQL; EFdA Concentrations in Dog Plasma ([3]; 12.0 hrs, individual animals): BQL; EFdA Concentrations in Dog Plasma ([3]; 24.0 hrs, individual animals): BQL; concentration at 0.25 h ([3]; male, beagle, dog, in vivo, po, 5 mg/kg, EFdA Concentrations in Dog Plasma, 0.250 hrs, Mean): 355 ng/mL; concentration at 0.25 h ([3]; male, beagle, dog, in vivo, po, 5 mg/kg, EFdA Concentrations in Dog Plasma, 0.250 hrs, individual animals): 456 ng/mL; concentration at 0.5 h ([3]; male, beagle, dog, in vivo, po, 5 mg/kg, EFdA Concentrations in Dog Plasma, 0.500 hrs, Mean): 323 ng/mL; concentration at 0.5 h ([3]; male, beagle, dog, in vivo, po, 5 mg/kg, EFdA Concentrations in Dog Plasma, 0.500 hrs, individual animals): 391 ng/mL; concentration at 1 h ([3]; male, beagle, dog, in vivo, po, 5 mg/kg, EFdA Concentrations in Dog Plasma, 1.00 hrs, Mean): 361 ng/mL; concentration at 1 h ([3]; male, beagle, dog, in vivo, po, 5 mg/kg, EFdA Concentrations in Dog Plasma, 1.00 hrs, individual animals): 369 ng/mL; concentration at 2 h ([3]; male, beagle, dog, in vivo, po, 5 mg/kg, EFdA Concentrations in Dog Plasma, 2.00 hrs, Mean): 189 ng/mL; concentration at 2 h ([3]; male, beagle, dog, in vivo, po, 5 mg/kg, EFdA Concentrations in Dog Plasma, 2.00 hrs, individual animals): 211 ng/mL; concentration at 4 h ([3]; male, beagle, dog, in vivo, po, 5 mg/kg, EFdA Concentrations in Dog Plasma, 4.00 hrs, Mean): 12.3 ng/mL
6 | C#C[C@]1(COC(=O)NC(C)C)O[C@@H](n2cnc3c(N)nc(F)nc32)C[C@@H]1O [Formula 2-A, ((2R,3S,5R)-5-(6-amino-2-fluoro-9H-purin-9-yl)-2-ethynyl-3-hydroxytetrahydrofuran-2-yl)methyl isopropylcarbamate] | No | 50 to 200 | No | > 200 | 
7 | C#C[C@]1(CO)O[C@@H](n2cnc3c(NC(=O)OC(C)C)nc(F)nc32)C[C@@H]1O [Formula 3-A, isopropyl (9-((2R,4S,5R)-5-ethynyl-4-hydroxy-5-(hydroxymethyl)tetrahydrofuran-2-yl)-2-fluoro-9H-purin-6-yl)carbamate] | No | 50 to 200 | No | > 200 | 
